Measurements: patent US20220324835A1 (Nurix Therapeutics, Inc., priority 2018, published 2022)

Key:
Cbl-b [1] = biological target: T1, Cbl-b (Homo sapiens, UniProt Q13191); assay: Cbl-b activity assay (Cbl-b inhibition assay), TR-FRET of Cbl-b interaction with UbcH5B-Ub; type: biochemical; conditions: assay buffer with 100 mM NaCl, 60 nM Src kinase; read-out: Cbl-b activity IC50
How it was run: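 UbcH5B (C85K) conjugated to N-terminally Bodipy-Fluorescein-labeled ubiquitin served as the fluorescent partner. After compound preincubation, Src kinase (60 nM) with 1 mM ATP and 5 mM MgCl2 (final) was added for 1.5 h, followed by a further 1 h incubation. Some values were obtained with 50 mM NaCl and 30 nM Src.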

T-cell [2] = assay: IL-2 secretion from T-cells co-stimulated with anti-CD3 and anti-CD28 antibody (Biological Example 2); type: cell-based, human; conditions: Homo sapiens, T-cell, fold change over baseline, primary human total T-cells, read-out: IL-2 secretion Anti-CD3/Anti-CD28 stimulation; for fold induction at 0.3 µM: 0.3 μM Cbl-b inhibitor; for fold induction at 1 µM: 1 μM Cbl-b inhibitor; for fold induction at 4 µM: 4 μM Cbl-b inhibitor
How it was run: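 T-cells were stimulated with anti-CD3 antibody alone or with anti-CD28 antibody, in the presence or absence of Cbl-b inhibitor. IL-2 secretion or CD25 surface staining was measured, and values expressed as fold over the uninhibited baseline […].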

T-cell [3] = assay: IL-2 secretion from T-cells stimulated with anti-CD3 antibody alone (Biological Example 2); type: cell-based, human; conditions: T-cell, fold change over baseline, primary human total T-cells, read-out: IL-2 secretion Anti-CD3 stimulation; for fold induction at 1 µM: 1 μM Cbl-b inhibitor; for fold induction at 8 µM: 8 μM Cbl-b inhibitor
T-cell [4] = assay: CD25 cell surface staining on T-cells stimulated with anti-CD3 antibody alone (Biological Example 2); type: cell-based, human; conditions: T-cell, fold change over baseline, primary human total T-cells, read-out: CD25 staining Anti-CD3 stimulation; for fold induction at 1 µM: 1 μM Cbl-b inhibitor; for fold induction at 8 µM: 8 μM Cbl-b inhibitor
Cbl-b [5] = biological target: T1, Cbl-b; assay: Cbl-b inhibition assay (Cbl-b activity assay, FRET, Biological Example 1; 100 mM NaCl, 60 nM Src kinase); type: biochemical; conditions: upper bound stated in text lists; read-out: IC50 values in the Cbl-b inhibition assay of Biological Example 1
How it was run: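 Inhibition is read as loss of FRET signal. The signal arises when Src-phosphorylated, N-terminal biotinylated Avi-Cbl-b (captured by streptavidin-terbium) binds UbcH5B carrying covalently linked Bodipy-Fluorescein-tagged ubiquitin.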

T1 sequence (Q13191 36-427): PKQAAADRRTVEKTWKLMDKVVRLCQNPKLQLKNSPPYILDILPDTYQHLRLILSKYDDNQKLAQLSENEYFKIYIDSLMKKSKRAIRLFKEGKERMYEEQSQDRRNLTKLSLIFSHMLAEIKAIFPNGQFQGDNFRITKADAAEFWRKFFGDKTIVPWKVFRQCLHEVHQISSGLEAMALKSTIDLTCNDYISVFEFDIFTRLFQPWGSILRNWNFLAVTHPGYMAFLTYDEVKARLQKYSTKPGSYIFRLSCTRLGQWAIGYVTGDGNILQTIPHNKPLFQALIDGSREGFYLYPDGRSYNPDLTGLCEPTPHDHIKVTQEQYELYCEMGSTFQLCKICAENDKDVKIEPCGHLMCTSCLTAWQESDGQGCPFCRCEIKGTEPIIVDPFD

Compound	IC50 (Cbl-b [1]) [nM]	fold induction at 0.3 µM (T-cell [2])	fold induction at 1 µM (T-cell [2])	fold induction at 4 µM (T-cell [2])	fold induction at 1 µM (T-cell [3])	fold induction at 8 µM (T-cell [3])	fold induction at 1 µM (T-cell [4])	fold induction at 8 µM (T-cell [4])	IC50 (Cbl-b [5]) [nM]
Cc1cc(C(=O)Nc2cccc([C@@H](C)Cc3nncn3C)c2)nc(C2CC2)n1 [Compound 325, (S)-2-Cyclopropyl-6-methyl-N-(3-(1-(4-methyl-4H-1,2,4-triazol-3-yl)propan-2-yl)phenyl)pyrimidine-4-carboxamide]	100 to 300	1.01 to 2.5	1.01 to 2.5	2.51 to 5	0.051 to 0.1	0.101 to 0.15	0.801 to 1	> 1	≤ 300
C[C@H](Cc1nncn1C)c1cccc(NC(=O)c2cc(C(=O)N3CC[C@H](O)C3)cc(C(F)(F)F)n2)c1 [Compound 220, 4-((S)-3-hydroxypyrrolidine-1-carbonyl)-N-(3-((R)-1-(4-methyl-4H-1,2,4-triazol-3-yl)propan-2-yl)phenyl)-6-(trifluoromethyl)picolinamide]	< 100	2.51 to 5	> 7.5	> 7.5	> 0.201	> 0.201	> 1	> 1	≤ 100
COc1ccc(C(=O)Nc2cccc([C@H](C)Sc3nncn3C)c2)nc1C1CC1 [Compound 93, 6-cyclopropyl-5-methoxy-N-[3-[(1S)-1-[(4-methyl-1,2,4-triazol-3-yl)sulfanyl]ethyl]phenyl]pyridine-2-carboxamide]	< 100	1.01 to 2.5	1.01 to 2.5	2.51 to 5	< 0.05	0.101 to 0.15	0.601 to 0.8	> 1	≤ 100
C[C@H](Cc1nncn1C)c1cccc(NC(=O)c2ccnc(C3CC3)n2)c1 [Compound 199, (R)-2-cyclopropyl-N-(3-(1-(4-methyl-4H-1,2,4-triazol-3-yl)propan-2-yl)phenyl)pyrimidine-4-carboxamide]	< 100	2.51 to 5	5 to 7.5	> 7.5	> 0.201	> 0.201	> 1	> 1	≤ 100
C[C@H](Cc1nncn1C)c1cccc(N2Cc3c(cc(C(=O)N4CC[C@H](O)C4)cc3C(F)(F)F)C2=O)c1 [Compound 274, 6-((S)-3-hydroxypyrrolidine-1-carbonyl)-2-(3-((R)-1-(4-methyl-4H-1,2,4-triazol-3-yl)propan-2-yl)phenyl)-4-(trifluoromethyl)isoindolin-1-one]	< 100	1.01 to 2.5	2.51 to 5	> 7.5	0.151 to 0.2	> 0.201	0.801 to 1	> 1	≤ 100
C[C@H](Sc1nncn1C)c1cccc(NC(=O)c2cccc(C3CC3)n2)c1 [Compound 72, (S)-6-cyclopropyl-N-(3-(1-((4-methyl-4H-1,2,4-triazol-3-yl)thio)ethyl)phenyl)picolinamide]	< 100	1.01 to 2.5	2.51 to 5	2.51 to 5	0.051 to 0.1	0.151 to 0.2	< 0.6	0.801 to 1	≤ 100
C[C@H](Sc1nncn1C)c1cccc(NC(=O)c2ccc(CO)c(C3CC3)n2)c1 [Compound 89, 6-cyclopropyl-5-(hydroxymethyl)-N-[3-[(1S)-1-[(4-methyl-1,2,4-triazol-3-yl)sulfanyl]ethyl]phenyl]pyridine-2-carboxamide]	< 100	1.01 to 2.5	2.51 to 5	5 to 7.5	< 0.05	0.101 to 0.15	< 0.6	0.801 to 1	≤ 100
C[C@H](Sc1nncn1C)c1cccc(NC(=O)c2ccc(F)c(C3CC3)n2)c1 [Compound 91, 6-Cyclopropyl-5-fluoro-N-[3-[(1S)-1-[(4-methyl-1,2,4-triazol-3-yl)sulfanyl]ethyl]phenyl]pyridine-2-carboxamide]	< 100	1.01 to 2.5	2.51 to 5	> 7.5	< 0.05	0.101 to 0.15	0.601 to 0.8	> 1	≤ 100
CNc1cc([C@H](C)Cc2nncn2C)cc(N2Cc3c(cccc3C(F)(F)F)C2=O)n1 [Compound 363, (R)-2-(4-(1-(4-methyl-4H-1,2,4-triazol-3-yl)propan-2-yl)-6-(methylamino)pyridin-2-yl)-4-(trifluoromethyl)isoindolin-1-one]	< 100	1.01 to 2.5	1.01 to 2.5	5 to 7.5	0.051 to 0.1	0.151 to 0.2	0.601 to 0.8	> 1	≤ 100
CCOc1cc([C@H](C)Cc2nncn2C)cc(N2Cc3c(cccc3C(F)(F)F)C2=O)n1 [Compound 358, (R)-2-(6-ethoxy-4-(1-(4-methyl-4H-1,2,4-triazol-3-yl)propan-2-yl)pyridin-2-yl)-4-(trifluoromethyl)isoindolin-1-one]	< 100	2.51 to 5	5 to 7.5	> 7.5	0.151 to 0.2	> 0.201	> 1	> 1	≤ 100
C[C@H](Cc1nncn1C)c1cccc(N2Cc3c(cc(C(=O)N4CC(O)C4)cc3C(F)(F)F)C2=O)c1 [Compound 276, (R)-6-(3-hydroxyazetidine-1-carbonyl)-2-(3-(1-(4-methyl-4H-1,2,4-triazol-3-yl)propan-2-yl)phenyl)-4-(trifluoromethyl)isoindolin-1-one]	< 100	1.01 to 2.5	2.51 to 5	> 7.5	0.051 to 0.1	0.151 to 0.2	0.801 to 1	> 1	≤ 100
C[C@H](Cc1nncn1C)c1cccc(N2Cc3c(cc(C(=O)N4C[C@@H](O)C[C@H]4C)cc3C(F)(F)F)C2=O)c1 [Compound 275, 6-((2R,4S)-4-hydroxy-2-methylpyrrolidine-1-carbonyl)-2-(3-((R)-1-(4-methyl-4H-1,2,4-triazol-3-yl)propan-2-yl)phenyl)-4-(trifluoromethyl)isoindolin-1-one]	< 100	2.51 to 5	5 to 7.5	> 7.5	> 0.201	> 0.201	0.801 to 1	> 1	≤ 100
Cc1ccc(C(=O)Nc2cccc([C@H](C)Sc3nncn3C)c2)nc1C1CC1 [Compound 54, (S)-6-cyclopropyl-5-methyl-N-(3-(1-((4-methyl-4H-1,2,4-triazol-3-yl)thio)ethyl)phenyl)picolinamide]	< 100	1.01 to 2.5	2.51 to 5	> 7.5	< 0.05	0.151 to 0.2	0.601 to 0.8	0.801 to 1	≤ 100
